# According to ChEMBL document CHEMBL1158206, “Ferintoic Acids A and B, New Cyclic Hexapeptides from the Freshwater Cyanobacterium Microcystis aeruginosa” (J Nat Prod, 1996):
# The source made the active and inactive calls. The calls are words filed in the database; no cut-off is given here. Numbered stars: 1 amine (or outer) side, 2 acyl side, 3 side chain; on linkers, the order of the positions; unused ones are H or OH. Bridge positions count the residues as written; N and C are the ends. Square brackets hold non-standard residues; d marks the D form. Peptide text beside a SMILES is read from it. hTyr = N[C@@H](CCc1ccc(O)cc1)C(=O)O; aIle = CC[C@@H](C)[C@H](N)C(=O)O; NMeA = CN[C@@H](C)C(=O)O; CO = O=C([*:1])[*:2]
# Legend:
# [1] = Inhibition of chymotrypsin at 150 uM
# [2] = Inhibition of chymotrypsin at 10 uM
Activity [1],Activity [2],SMILES
inactive,–,CC[C@@H](C)[C@@H]1NC(=O)[C@H](NC(=O)N[C@@H](Cc2c[nH]c3ccccc23)C(=O)O)CCCCNC(=O)[C@H](Cc2ccccc2)NC(=O)[C@H](C)N(C)C(=O)[C@H](CCc2ccc(O)cc2)NC1=O
–,Active,CC[C@@H](C)[C@@H]1NC(=O)[C@H](NC(=O)N[C@@H](Cc2ccc(O)cc2)C(=O)O)CCCCNC(=O)[C@H](Cc2ccccc2)NC(=O)[C@H](C)N(C)C(=O)[C@H](CCc2ccc(O)cc2)NC1=O ({Tyr-CO}-[dK][aIle][hTyr][NMeA]F; lactam 1-C)
inactive,–,CC(C)[C@@H]1NC(=O)[C@H](NC(=O)N[C@@H](Cc2c[nH]c3ccccc23)C(=O)O)CCCCNC(=O)[C@H](Cc2ccccc2)NC(=O)[C@H](C)N(C)C(=O)[C@H](CCc2ccc(O)cc2)NC1=O ({Trp-CO}-[dK]V[hTyr][NMeA]F; lactam 1-C)
